The results in this text go back to US20240246968A1, “SMALL MOLECULE INHIBITORS OF KRAS G12C MUTANT” (Merck Sharp & Dohme LLC, priority 2021, published 2024).

The target in test [1] is Gppcp-bound recombinant K-Ras4B G12C mutant protein (amino acids 1-169, C51S/C80L/C118S) (Homo sapiens, UniProt P01116, C118S/C51S/C80L/G12C). Kind of test: KRASG12C binding assay (LC-MS, compound binding rate). The following applies: test compound final concentration 0.5 μM, 25° C., 1 hour. The procedure, abridged:
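Covalent adduct formation measured by deconvoluted intact-mass LC-MS after 1 h at 25 °C with compound at 0.5 μM final and 50 nM Gppcp-loaded KRAS G12C (residues 1-169, C51S/C80L/C118S). Buffer: TBS, 0.1 mM TCEP, 0.25 mM MgCl2, 50 μM Gppcp. Binding % = one-molecule adduct/(unbound + all adducts), binned A ≥80, B 60–80, C 40–60, D 20–40, E <20.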

A further test relates to MIA PaCa-2 cells. Kind of test: Growth inhibition activity on KRAS-G12C mutant cell line (MIA PaCa-2), CellTiter-Glo 3D. Particulars: MIA PaCa-2, 3-day culture with compound. In kind it is cell-based, human. The procedure, abridged: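 Luminescence readout (CellTiter-Glo 3D) after 3 days of compound treatment at 37 °C, 5% CO2, 0.2% final DMSO, gave % growth inhibition versus no-compound wells, from which IC50 (nM) was derived; cells had been plated in 10% FBS RPMI1640 one day before dosing.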

Test [2] concerns the target T1, interaction between recombinant K-Ras4B G12C mutant protein and cRAF RAS-binding domain (cRAF-RBD) (Homo sapiens, UniProt P01116, G12C).
T1 construct: made in house; host or cells: E. coli
Kind of test: Inhibitory activity on interaction between KRAS G12C and cRAF (Alpha technology). The class given is biochemical. Particulars: GMPPNP-bound KRAS G12C incubated with compound at 25° C. for 1 hour, then cRAF-RBD; Alpha signal. The procedure, abridged:
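Alpha readout of cRAF-RBD (aa 50-132) binding to KRAS G12C (aa 1-169) after 1.5 h RT, following 1 h, 25° C compound preincubation with GMPPNP-bound protein (pH 7.5 Tris, 1 mM MgCl2, TCEP, Tween 20). IC50 fitted from titrations, with GDP-bound KRAS as 100% and DMSO as 0% inhibition.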

The IC50 is the point on the concentration scale where inhibition reaches its midpoint. On to `Cc1cc2c(nc(C)n2C)c(Cl)c1-c1cccn2c(C(=O)c3cc(F)c(NC(=O)/C=C/CNC(C)(C)C)c(F)c3)ccc12` (single isomer, unassigned) [Example 18-1, (E)-4-(tert-butylamino)-N-(4-(8-(4-chloro-1,2,6-trimethyl-1H-benzo[d]imidazol-5-yl)indolizine-3-carbonyl)-2,6-difluorophenyl)but-2-enamide], for which the binding rate entry in test [1] is “A (A binding rate of 80% or more is rated “A”)”. In addition, the IC50 (with MIA PaCa-2 cells; in test [2]) was 29 nM throughout.

Regarding `Cc1cc2c(ncn2C)c(Cl)c1-c1cccn2c(C(=O)c3cc(F)c(NC(=O)/C=C/CNC4CCOCC4)c(F)c3)ccc12` (single isomer, unassigned) [Example 27-1, (E)-N-(4-(8-(4-chloro-1,6-dimethyl-1H-benzo[d]imidazol-5-yl)indolizine-3-carbonyl)-2,6-difluorophenyl)-4-((tetrahydro-2H-pyran-4-yl)amino)but-2-enamide], the binding rate result in test [1] is “A (A binding rate of 80% or more is rated “A”)”. In addition, the concentration for half-maximal inhibition (IC50) in the test on MIA PaCa-2 cells is 120 nM; in test [2], 25 nM.

Turning to `CCc1nc2cc(-c3cccn4c(C(=O)c5cc(F)c(NC(=O)/C=C/CN[C@H]6CC[C@H](OC)CC6)c(F)c5)ccc34)c(C(F)(F)F)cc2n1C` [Example 3, (E)-N-(4-(8-(2-ethyl-1-methyl-6-(trifluoromethyl)-1H-benzo[d]imidazol-5-yl)indolizine-3-carbonyl)-2,6-difluorophenyl)-4-(((1r,4r)-4-methoxycyclohexyl)amino)but-2-enamide], the binding rate result in test [1] was “A (A binding rate of 80% or more is rated “A”)”. Also, the half-maximal inhibitory concentration (IC50) amounted to 52 nM in the test on MIA PaCa-2 cells (Homo sapiens, MIA PaCa-2, 72 h) and 72 nM in test [2].

For `CO[C@H]1CC[C@H](NC/C=C/C(=O)Nc2c(F)cc(C(=O)c3ccc4c(-c5c(C)cc6c(ncn6C)c5C)cccn34)cc2F)CC1` (single isomer, unassigned) [Example 34-2, (E)-N-(2,6-difluoro-4-(8-(1,4,6-trimethyl-1H-benzo[d]imidazol-5-yl)indolizine-3-carbonyl)phenyl)-4-(((1r,4r)-4-methoxycyclohexyl)amino)but-2-enamide], in test [1], the binding rate result is “B (a binding rate of 60% or more and less than 80% is rated “B”)”. Also, the half-maximal inhibitory concentration (IC50) with MIA PaCa-2 cells is 310 nM; in test [2] it was 200 nM.

Consider `COc1cc2c(nc(C)n2C)c(Cl)c1-c1cccn2c(C(=O)c3cc(F)c(NC(=O)/C=C/CN[C@H]4CC[C@H](OC)CC4)c(F)c3)ccc12` (single isomer, unassigned) [Example 35-1, (E)-N-(4-(8-(4-chloro-6-methoxy-1,2-dimethyl-1H-benzo[d]imidazol-5-yl)indolizine-3-carbonyl)-2,6-difluorophenyl)-4-(((1r,4r)-4-methoxycyclohexyl)amino)but-2-enamide], for which the binding rate result in test [1] is given as “A (A binding rate of 80% or more is rated “A”)”. The IC50 was 35 nM in the test with MIA PaCa-2 cells and 29 nM in test [2].

For the compound `COc1c(-c2cccn3c(C(=O)c4cc(F)c(NC(=O)/C=C/CN[C@H]5CC[C@H](OC)CC5)c(F)c4)cnc23)c(C(F)(F)F)cc2c1nc(C)n2C` (single isomer, unassigned) [Example 83-2, (E)-N-(2,6-difluoro-4-(8-(4-methoxy-1,2-dimethyl-6-(trifluoromethyl)-1H-benzo[d]imidazol-5-yl)imidazo[1,2-a]pyridine-3-carbonyl)phenyl)-4-(((1r,4r)-4-methoxycyclohexyl)amino)but-2-enamide], in test [1], the binding rate entry is “B (a binding rate of 60% or more and less than 80% is rated “B”)”. Further, the IC50 worked out at 850 nM with MIA PaCa-2 cells and 920 nM in test [2].

In the case of `CO[C@H]1CC[C@H](NC/C=C/C(=O)Nc2c(F)cc(C(=O)c3c[nH]c4c(-c5cc6nc(C)n(C)c6cc5C(F)(F)F)cccc34)cc2F)CC1` [Example 45, (E)-N-(4-(7-(1,2-dimethyl-6-(trifluoromethyl)-1H-benzo[d]imidazol-5-yl)-1H-indole-3-carbonyl)-2,6-difluorophenyl)-4-(((1r,4r)-4-methoxycyclohexyl)amino)but-2-enamide], the binding rate result in test [1] is given as “A (A binding rate of 80% or more is rated “A”)”. In addition, the IC50 with MIA PaCa-2 cells (Homo sapiens, MIA PaCa-2, 72 h) was 67 nM; in test [2], 76 nM.

In the case of `Cc1cc2c(nc(CC(N)=O)n2C)c(Cl)c1-c1cccn2c(C(=O)c3cc(F)c(NC(=O)/C=C/CNC(C)(C)C)c(F)c3)ccc12` [Example 73, (E)-N-(4-(8-(2-(2-amino-2-oxoethyl)-4-chloro-1,6-dimethyl-1H-benzo[d]imidazol-5-yl)indolizine-3-carbonyl)-2,6-difluorophenyl)-4-(tert-butylamino)but-2-enamide], the binding rate result in test [1] is given as “A (A binding rate of 80% or more is rated “A”)”. The IC50 came out at 300 nM with MIA PaCa-2 cells (Homo sapiens, MIA PaCa-2, 72 h) and 73 nM in test [2].

With `CO[C@H]1CC[C@H](NC/C=C/C(=O)Nc2c(F)cc(C(=O)c3ccc4c(-c5cc6[nH]c(=O)n(C)c6cc5C(F)(F)F)cccn34)cc2F)CC1` [Example 110, (E)-N-(2,6-difluoro-4-(8(1-methyl-2-oxo-6-(trifluoromethyl)-2,3-dihydro-1H-benzo[d]imidazol-5-yl)indolizine-3-carbonyl)phenyl)-4-(((1r,4r)-4-methoxycyclohexyl)amino)but-2-enamide], the binding rate result in test [1] is “A (A binding rate of 80% or more is rated “A”)”. Also, the IC50 turned out to be 182 nM in the test with MIA PaCa-2 cells (Homo sapiens, MIA PaCa-2, 72 h) and 80.7 nM in test [2].

In the case of `COc1c(-c2cccn3c(C(=O)c4cc(F)c(NC(=O)/C=C/CNC5CCOCC5)c(F)c4)ccc23)c(C(F)(F)F)cc2c1nc(C)n2C` (single isomer, unassigned) [Example 61-1, (E)-N-(2,6-difluoro-4-(8-(4-methoxy-1,2-dimethyl-6-(trifluoromethyl)-1H-benzo[d]imidazol-5-yl)indolizine-3-carbonyl)phenyl)-4-((tetrahydro-2H-pyran-4-yl)amino)but-2-enamide], in test [1], the binding rate result is “B (a binding rate of 60% or more and less than 80% is rated “B”)”. Besides, the values for the half-maximal inhibitory concentration (IC50) (with MIA PaCa-2 cells; in test [2]) were 2300 nM and 1900 nM, respectively.

With `Cn1cnc2c(Cl)c(-c3cccn4c(C(=O)c5cc(F)c(NC(=O)/C=C/CNC(C)(C)C)c(F)c5)ccc34)c(Cl)cc21` (single isomer, unassigned) [Example 20-1, (E)-4-(tert-butylamino)-N-(4-(8-(4,6-dichloro-1-methyl-1H-benzo[d]imidazol-5-yl)indolizine-3-carbonyl)-2,6-difluorophenyl)but-2-enamide], the binding rate entry in test [1] is “A (A binding rate of 80% or more is rated “A”)”. For the same compound, the half-maximal inhibitory concentration (IC50) (in the test on MIA PaCa-2 cells; in test [2]) was 200 nM in each case.

As for `COc1cc2c(nc(C)n2C)c(Cl)c1-c1cccn2c(C(=O)c3cc(F)c(NC(=O)/C=C/CNC(C)(C)C)c(F)c3)ccc12` (single isomer, unassigned) [Example 36-2, (E)-4-(tert-butylamino)-N-(4-(8-(4-chloro-6-methoxy-1,2-dimethyl-1H-benzo[d]imidazol-5-yl)indolizine-3-carbonyl)-2,6-difluorophenyl)but-2-enamide], the binding rate result in test [1] is reported as “A (A binding rate of 80% or more is rated “A”)”. In addition, the IC50 stood at 60 nM with MIA PaCa-2 cells and 56 nM in test [2].

Regarding `CO[C@H]1CC[C@H](NC/C=C/C(=O)Nc2c(F)cc(C(=O)c3ccc4c(-c5c(C(F)(F)F)cc6c(ncn6C)c5Cl)cccn34)cc2F)CC1` (single isomer, unassigned) [Example 28-1, (E)-N-(4-(8-(4-chloro-1-methyl-6-(trifluoromethyl)-1H-benzo[d]imidazol-5-yl)indolizine-3-carbonyl)-2,6-difluorophenyl)-4-(((1r,4r)-4-methoxycyclohexyl)amino)but-2-enamide], in test [1], the binding rate result is given as “A (A binding rate of 80% or more is rated “A”)”. Further, the IC50 was 51 nM with MIA PaCa-2 cells and 31 nM in test [2].

Take `CO[C@H]1C[C@H](NC/C=C/C(=O)Nc2c(F)cc(C(=O)c3ccc4c(-c5cc6nc(C)n(C)c6cc5C(F)(F)F)cccn34)cc2F)C1` [Example 54, (E)-N-(4-(8-(1,2-dimethyl-6-(trifluoromethyl)-1H-benzo[d]imidazol-5-yl)indolizine-3-carbonyl)-2,6-difluorophenyl)-4-(((1r,3r)-3-methoxycyclobutyl)amino)but-2-enamide]: in test [1], the binding rate result was “A (A binding rate of 80% or more is rated “A”)”. Also, the IC50 is 130 nM in the test on MIA PaCa-2 cells (Homo sapiens, MIA PaCa-2, 72 h) and 67 nM in test [2].

For the compound `COCc1cc(C(=O)c2cc(F)c(NC(=O)/C=C/CN[C@H]3CC[C@H](OC)CC3)c(F)c2)n2cccc(-c3c(C)cc4c(nc(C)n4C)c3Cl)c12` [Example 103, (E)-N-(4-(8-(4-chloro-1,2,6-trimethyl-1H-benzo[d]imidazol-5-yl)-1-(methoxymethyl)indolizine-3-carbonyl)-2,6-difluorophenyl)-4-(((1r,4r)-4-methoxycyclohexyl)amino)but-2-enamide], the binding rate result in test [1] is listed as “A (A binding rate of 80% or more is rated “A”)”. The 50% inhibitory concentration (IC50) in the test with MIA PaCa-2 cells (Homo sapiens, MIA PaCa-2, 72 h) was 74.8 nM; in test [2] it was 32 nM.
